Assay results reported in article PMC12024457 (Antioxidants, 2025).

Assays:
[1] = tested on: Human MDA-MB-231 breast cancer cells; type: cell-based
Experimental: MDA-MB-231 and LX2 cells were seeded in triplicate in 96-well plates at a density of 20,000 cells per well in 100 μL of medium and allowed to attach for 24 h at 37 °C and 5% CO2. Compounds were added at a final DMSO concentration of 0.5%, and cells were incubated for an additional 48 h. The pan-kinase inhibitor staurosporine (1 µM, Merck) was used as a reference compound, and the concentration was selected to efficiently induce cell death (≥90%). […]. The concentrations of Q-VD-OPh and ferrostatin-1 were chosen based on commonly applied ranges reported in the literature and were further optimized in preliminary experiments using the apoptosis inducers etoposide and staurosporine, as well as the ferroptosis inducer RSL3, to ensure suppression of apoptosis and ferroptosis, respectively. […] Absorbance was measured at 570 nm using a SpectraMax iD3 plate reader (Molecular Devices). Absorbance values from ethanol-treated cells were used for background subtraction, and cell viability was expressed as percentage relative to the vehicle control (DMSO). […]
Cells were treated with vehicle (0.5% DMSO) or compounds at different concentrations (0.3, 1, 3, 10, and 30 μM) for 48 h. Cell viability measured by MTT assay. […]

MDA-MB-231 cells = assay: Inhibition of RSL3-induced ferroptotic cell death (MTT); type: cell-based, human; conditions: at either 3 or 30 μM, RSL3 0.3 µM
Experimental: The anti-ferroptotic properties of the compounds were evaluated in MDA-MB-231 cells. Cells were seeded in 96-well plates at a density of 20,000 cells per well in 100 μL of medium. After 24 h at 37 °C and 5% CO2, cells were treated with the vehicle (0.5% DMSO) or the compounds at 3 µM and 30 µM alone or in combination with RSL3 (0.3 μM, Cayman Chemicals) for an additional 48 h. The cellular dehydrogenase activity was assessed by the reduction of MTT, as described in Section 2.4.
Radar plot illustrating cell viability measured by MTT assay. […] Data are presented as the mean of n = 3 independent experiments. * p < 0.05, ** p < 0.01; paired Student’s t-test.

[2] = tested on: human triple-negative MDA-MB-231 breast cancer cells; assay: MTT cell viability, MDA-MB-231; type: cell-based; conditions: MDA-MB-231, 48 h, up to 30 µM
Experimental: (§1) MDA-MB-231 and LX2 cells were seeded in triplicate in 96-well plates at a density of 20,000 cells per well in 100 μL of medium and allowed to attach for 24 h at 37 °C and 5% CO2. Compounds were added at a final DMSO concentration of 0.5%, and cells were incubated for an additional 48 h. The pan-kinase inhibitor staurosporine (1 µM, Merck) was used as a reference compound, and the concentration was selected to efficiently induce cell death (≥90%). […]. The concentrations of Q-VD-OPh and ferrostatin-1 were chosen based on commonly applied ranges reported in the literature and were further optimized in preliminary experiments using the apoptosis inducers etoposide and staurosporine, as well as the ferroptosis inducer RSL3, to ensure suppression of apoptosis and ferroptosis, respectively. […] For the MTT assay, 20 µL of 3-(4,5-dimethylthiazol-2-yl)-2,5-diphenyltetrazolium bromide (MTT, 5 mg/mL in PBS pH = 7.4, sterile-filtered, Merck) solution was added to each well, and the cells were incubated for 1.5 h. […] Absorbance was measured at 570 nm using a SpectraMax iD3 plate reader (Molecular Devices). Absorbance values from ethanol-treated cells were used for background subtraction, and cell viability was expressed as percentage relative to the vehicle control (DMSO). […]

human LX2 stellate cells = assay: MTT cell viability, LX2; type: cell-based; conditions: LX2, 48 h, up to 30 µM
Experimental: as §1

[3] = DPPH radical scavenging assay; conditions: read-out: DPPH (EC50)
[4] = TE: Trolox equivalent

SMILES: COc1cc(/C=C/C(=O)CC(=O)/C=C/c2ccc(O)c(OC)c2)ccc1O [Curcumin]
- effect of ferroptosis inhibitor Fer-1 on compound-induced cell death ([1]; Fer-1 10 μM, 48 h): partially attenuated by Fer-1
- effect of apoptosis inhibitor Q-VD on compound-induced cell death ([1]; human): tendentially by Q-VD
- cytoprotective effects against RSL3-induced ferroptosis (MDA-MB-231 cells): did not exhibit cytoprotective effects
- EC50 [2]: 20 µM
- EC50 (human LX2 stellate cells): 23 µM

SMILES: OCCc1ccc(O)c(O)c1 [HTYR, 3-hydroxy-tyrosol]
- EC50 [3]: 12.3 ± 1 µM
- ORAC (TE) [4]: 7.40 ± 0.17 TE

SMILES: COc1ccc2[nH]cc(CCO)c2c1 [MEL, 5-methoxytryptophol]
- EC50 [3]: > 1000 µM
- ORAC (TE) [4]: 2.23 ± 0.12 TE

SMILES: COc1cc(CCO)ccc1O [MTYR, 3-methoxy-tyrosol]
- EC50 [3]: 31 ± 2.6 µM
- ORAC (TE) [4]: 2.90 ± 0.21 TE

SMILES: OCCc1ccc(O)cc1 [TYR, tyrosol]
- EC50 [3]: > 1000 µM
- ORAC (TE) [4]: 2.18 ± 0.12 TE
